Reference: PMC5966509 (Scientific Reports, 2018)

Biological target: T1, hA3G (human APOBEC3G) (Homo sapiens, UniProt Q9HC16)
T1 construct: 10067; biotinylated with NHS-biotin 3:1
Test: biolayer interferometry (Octet RED, super streptavidin sensors)
Type: binding
Details: biotinylated hA3G immobilised; 5% DMSO; kinetic constant from kon/koff

T1 sequence (Q9HC16 whole entry): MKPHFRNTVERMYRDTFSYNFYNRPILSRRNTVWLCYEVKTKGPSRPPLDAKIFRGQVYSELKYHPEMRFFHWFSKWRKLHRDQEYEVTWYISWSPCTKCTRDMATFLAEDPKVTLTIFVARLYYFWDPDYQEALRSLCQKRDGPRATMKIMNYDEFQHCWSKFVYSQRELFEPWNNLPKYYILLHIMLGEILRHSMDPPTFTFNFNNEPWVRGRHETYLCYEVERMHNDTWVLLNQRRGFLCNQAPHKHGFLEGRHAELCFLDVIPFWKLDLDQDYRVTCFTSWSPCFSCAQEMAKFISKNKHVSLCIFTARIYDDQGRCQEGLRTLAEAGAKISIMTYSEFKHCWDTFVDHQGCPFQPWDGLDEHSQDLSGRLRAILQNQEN

- Ligand (hA3G) / KD (M): 1.56E − 05 M
Substance: IMB-301
